Laboratory results as given in PubChem BioAssay AID226 (DTP/NCI, 2004).
Values joined by “and” are separate entries in the source; they are usually repeats but may differ in a detail not shown here. Equal values may be shown once. Toxic doses and inconclusive results are not listed. How the source made its calls: active means survival T/C of 150% or more; inactive means T/C below 125% in these data.

System: B6C3F1 mice, intracerebral ependymoblastoma, median survival T/C
Assay: NCI In Vivo Anticancer Drug Screen. Data for tumor model Ependymoblastoma (intracerebral) in B6C3F1 mice
Conditions: endpoint: median survival time, higher = longer survival
Description: The antitumor activity of compounds was measured in mice bearing transplantable tumors. Survival or tumor size were measured and the results are expressed as the measurement made in the treated group (T) divided by the measurement made in the vehicle treated control group (C). The tumor model used in this assay is Ependymoblastoma (intracerebral) in B6C3F1 mice

Measured: T/C

C[C@@H](CN1CC(=O)NC(=O)C1)N1CC(=O)NC(=O)C1
inactive: dose: 4.0 mg/kg/injection, schedule: Q01DX005 (ip), vehicle: Klucel (hydroxypropylcellulose) (HPC) 112 % of control and 120 % of control | dose: 4.0 mg/kg/injection, schedule: Q01DX005 (ip), vehicle: saline with Tween-80 116 % of control and 117 % of control | dose: 4.0 mg/kg/injection, schedule: Q01DX005 (ip), vehicle: water 102 % of control | dose: 8.0 mg/kg/injection, schedule: Q01DX005 (ip), vehicle: saline with Tween-80 108 % of control | dose: 16.0 mg/kg/injection, schedule: Q01DX005 (ip), vehicle: Klucel (hydroxypropylcellulose) (HPC) 108 % of control and 111 % of control | dose: 16.0 mg/kg/injection, schedule: Q01DX005 (ip), vehicle: saline with Tween-80 114 % of control and 118 % of control | dose: 16.0 mg/kg/injection, schedule: Q01DX005 (ip), vehicle: water 105 % of control | dose: 32.0 mg/kg/injection, schedule: Q01DX005 (ip), vehicle: saline 102 % of control and 114 % of control | dose: 32.0 mg/kg/injection, schedule: Q01DX005 (oral), vehicle: saline 109 % of control | dose: 64.0 mg/kg/injection, schedule: Q01DX005 (ip), vehicle: Klucel (hydroxypropylcellulose) (HPC) 107 % of control and 115 % of control | dose: 64.0 mg/kg/injection, schedule: Q01DX005 (ip), vehicle: saline with Tween-80 114 % of control | dose: 64.0 mg/kg/injection, schedule: Q01DX005 (ip), vehicle: saline 123 % of control | dose: 64.0 mg/kg/injection, schedule: Q01DX005 (ip), vehicle: water 108 % of control | dose: 128.0 mg/kg/injection, schedule: Q01DX005 (ip), vehicle: saline 120 % of control | dose: 128.0 mg/kg/injection, schedule: Q#A X002 (ip), vehicle: saline 103 % of control | dose: 256.0 mg/kg/injection, schedule: Q01DX001 (ip), vehicle: saline 107 % of control and 111 % of control and 113 % of control | dose: 256.0 mg/kg/injection, schedule: Q01DX001 (oral), vehicle: saline 109 % of control and 123 % of control and 124 % of control | dose: 256.0 mg/kg/injection, schedule: Q01DX005 (ip), vehicle: Klucel (hydroxypropylcellulose) (HPC) 112 % of control and 122 % of control | dose: 256.0 mg/kg/injection, schedule: Q01DX005 (ip), vehicle: saline 120 % of control and 122 % of control | dose: 256.0 mg/kg/injection, schedule: Q#A X002 (ip), vehicle: saline 113 % of control | dose: 512.0 mg/kg/injection, schedule: Q01DX001 (ip), vehicle: saline 109 % of control and 118 % of control | dose: 512.0 mg/kg/injection, schedule: Q01DX001 (oral), vehicle: saline 119 % of control and 121 % of control | dose: 512.0 mg/kg/injection, schedule: Q#A X002 (ip), vehicle: saline 121 % of control | dose: 1024.0 mg/kg/injection, schedule: Q01DX001 (ip), vehicle: saline 114 % of control and 121 % of control | dose: 1024.0 mg/kg/injection, schedule: Q01DX001 (oral), vehicle: saline 119 % of control | dose: 1024.0 mg/kg/injection, schedule: Q#A X002 (ip), vehicle: saline 121 % of control | dose: 2048.0 mg/kg/injection, schedule: Q01DX001 (oral), vehicle: saline 102 % of control and 121 % of control

O=P(NC12CC3CC(CC(C3)C1)C2)(N1CC1)N1CC1
inactive: dose: 2.25 mg/kg/injection, schedule: Q01DX005 (ip), vehicle: Klucel (hydroxypropylcellulose) (HPC) 108 % of control and 113 % of control | dose: 4.5 mg/kg/injection, schedule: Q01DX005 (ip), vehicle: Klucel (hydroxypropylcellulose) (HPC) 111 % of control and 117 % of control | dose: 9.0 mg/kg/injection, schedule: Q01DX005 (ip), vehicle: Klucel (hydroxypropylcellulose) (HPC) 123 % of control | dose: 18.0 mg/kg/injection, schedule: Q01DX005 (ip), vehicle: Klucel (hydroxypropylcellulose) (HPC) 123 % of control

N=c1ccn2c(n1)OC1C(O)C(CO)OC12 (stereo unspecified)
inactive: dose: 37.5 mg/kg/injection, schedule: Q01DX005 (ip), vehicle: saline 118 % of control | dose: 75.0 mg/kg/injection, schedule: Q01DX005 (ip), vehicle: saline 104 % of control | dose: 100.0 mg/kg/injection, schedule: Q01DX001 (ip), vehicle: saline 92 % of control and 94 % of control and 109 % of control | dose: 150.0 mg/kg/injection, schedule: Q01DX005 (ip), vehicle: saline 115 % of control | dose: 200.0 mg/kg/injection, schedule: Q01DX001 (ip), vehicle: saline 100 % of control (2×) and 101 % of control | dose: 400.0 mg/kg/injection, schedule: Q01DX001 (ip), vehicle: saline 95 % of control and 98 % of control and 112 % of control | dose: 800.0 mg/kg/injection, schedule: Q01DX001 (ip), vehicle: saline 106 % of control and 112 % of control and 123 % of control | dose: 1600.0 mg/kg/injection, schedule: Q01DX001 (ip), vehicle: saline 99 % of control and 105 % of control and 115 % of control

CC(=O)O[C@H]1C(=O)[C@@]2(C)[C@H]([C@H](OC(=O)c3ccccc3)[C@]3(O)C[C@H](OC(=O)[C@H](O)[C@@H](NC(=O)c4ccccc4)c4ccccc4)C(C)=C1C3(C)C)[C@]1(OC(C)=O)CO[C@@H]1C[C@@H]2O
inactive: dose: 2.5 mg/kg/injection, schedule: Q01DX005 (ip), vehicle: Klucel (hydroxypropylcellulose) (HPC) 107 % of control | dose: 5.0 mg/kg/injection, schedule: Q01DX005 (ip), vehicle: Klucel (hydroxypropylcellulose) (HPC) 101 % of control | dose: 10.0 mg/kg/injection, schedule: Q01DX005 (ip), vehicle: Klucel (hydroxypropylcellulose) (HPC) 91 % of control and 106 % of control | dose: 20.0 mg/kg/injection, schedule: Q01DX005 (ip), vehicle: Klucel (hydroxypropylcellulose) (HPC) 91 % of control

CC(=O)OCC1OC(n2cnc3c(=S)nc[nH]c32)C(OC(C)=O)C1OC(C)=O (stereo unspecified)
inactive: dose: 50.0 mg/kg/injection, schedule: Q01DX005 (ip), vehicle: suspension in saline 100 % of control | dose: 100.0 mg/kg/injection, schedule: Q01DX005 (ip), vehicle: suspension in saline 111 % of control | dose: 200.0 mg/kg/injection, schedule: Q01DX005 (ip), vehicle: suspension in saline 108 % of control
